Test results from patent US20150329608A1 (INSTITUT PASTEUR, priority 2008, published 2015).
Peptide text beside a SMILES is read from it.

How the values were obtained:
[1] = tested on: tail-flick response in male Wistar rats
[2] = tested on: locomotor activity in rats; details: opiorphin 1 mg/kg i.v.; vs control
[3] = tested on: despair or resignation behavior in adult male rats; assay: Behavioral despair test (forced swimming test)
[4] = tested on: colic inflammation in rats; assay: Colic inflammation model (intrarectal TNBS); assay type: in vivo, rat; details: opiorphin 1 mg/kg i.v.
[5] = tested on: anxiety in Wistar male rats
[6] = tested on: pharmaco-dependency behavior in rats; details: opiorphin at effective analgesic doses (1 mg/kg), repeated administration
[7] = tested on: acute pain behavioral response in male rats
[8] = tested on: chronic pain behavioral response in rats; assay: Formalin test (chronic chemical inflammatory pain)

## CN1CC[C@]23c4c5ccc(O)c4O[C@H]2[C@@H](O)C=C[C@H]3[C@H]1C5 [morphine, reference compound]
[1]; 15 min post-injection, after 7 days chronic treatment
  morphine-induced increase vs Opiorphin-induced response, day 7: tended to be lower than the response induced by Opiorphin
Peristaltism in rats; rats treated with morphine
  inhibition of peristaltism as compared with control rats: 80-90%

## NC(=O)CC[C@H](N)C(=O)N[C@@H](CCCN=C(N)N)C(=O)N[C@@H](Cc1ccccc1)C(=O)N[C@@H](CO)C(=O)N[C@@H](CCCN=C(N)N)C(=O)O [opiorphin, QRFSR] (H-QRFSR-OH)
[1]; 15, 25 and 60 minutes after treatment, Opiorphin 2 mg/kg i.v. vs morphine 1 mg/kg i.v.
  response latencies vs morphine-treated rats: did not significantly differ
[1]; Opiorphin 2 mg/kg i.v. once daily for 7 days
  tolerance to maximal antinociceptive effect: does not induce the development of tolerance
[1]; preliminary data, dose-dependent responses
  dose of maximal antinociceptive effect: 2 mg/kg
[2]
  hyperactivity effect: nor any significant hyperactivity effect
[3]; Naltrindole 10 mg/kg, specific antagonist of δ-opioid receptors
  effects of opiorphin in the presence of Naltrindole: abolished
[3]; administered intravenously, adult male rats
  dose of maximum antidepressant potency: 1 mg/kg
[3]; opiorphin 0.5 mg/kg i.v.
  immobility time in the test vs control group (Mann-Whitney): tends to be less than that of the rats from the control group
[3]; opiorphin 1 mg/kg i.v.
  immobility time in the test vs control group (Mann-Whitney): significantly less than that of the rats from the control group
  immobility time, change between pre-test and test (Wilcoxon): significantly decreases between the pre-test and the test
[3]; opiorphin 1 mg/kg i.v., second series
  effect in the behavioral despair model: induces an antidepressant effect in addition to a psychostimulant effect
[3]; opiorphin 2 mg/kg i.v.
  immobility time in the test vs control group (Mann-Whitney): significantly less than that of the rats from the control group
  immobility time, change between pre-test and test (Wilcoxon): significantly decreases between the pre-test and the test
[4]
  protection of the colic wall from inflammation: does not protect the colic wall from inflammation
[5]; Opiorphin 1 mg/kg i.v., 15 minutes before the test, n=8
  overall anxiety score, Average ± SEM: 25.94 ± 3.74
[5]; opiorphin 1 mg/kg i.v.
  anxiolytic activity relatively to the control: did not show any anxiolytic activity
[6]
  pharmaco-dependence: does not cause significant pharmaco-dependence
[7]; opiorphin 1 mg/kg i.v. vs morphine 6 mg/kg i.p.
  antinociceptive activity compared with morphine: equivalent
[7]; opiorphin 1 mg/kg i.v., n=8-12 rats/group
  antinociceptive activity: potent antinociceptive activity
Peristaltism in rats; rats treated with opiorphin
  anti-peristaltic effect: not observed
[8]; Naloxone 3 mg/kg
  analgesic effect of opiorphin in the presence of Naloxone: abolished
[8]; duration of licking of the paw and number of spasms, n=8 rats/group
  prolonged analgesic profile, dose effect: significant dose-dependent effect
[8]; i.v., duration of licking of the paw and number of spasms, 60 min
  dose of maximum anti-nociceptive potency: 1 to 2 mg/kg
[8]; specific antagonist of μ-opioid receptors, 0.8 mg/kg
  analgesic effect of opiorphin in the presence of CTPA: abolished
Memorization in rats; 24 hours after, Opiorphin 1 mg/kg i.v. given immediately after pre-test, average ±SEM, n=8
  latency time for entering the dark compartment, Test: 158.5 ± 20.5
Memorization in rats; opiorphin 1 mg/kg i.v.
  amnesia effect: does not show any amnesia effect

## CCCN(CCC)C1CCc2cccc(O)c2C1 (stereo not drawn) [8-OH-DPAT, reference compound]
[3]; 8-OH-DPAT 0.5 mg/kg
  immobility time in the test vs control group (Mann-Whitney): significantly less than that of the rats from the control group
  immobility time, change between pre-test and test (Wilcoxon): significantly decreases between the pre-test and the test

## CC(C)Cc1ccc(C(C)C(=O)O)cc1 (stereo not drawn) [ibuprofen, reference compound]
[4]
  protection of the colic wall from inflammation: protect the colic wall from inflammation
